Values joined by “and” are separate entries in the source; they are usually repeats but may differ in a detail not shown here. Identical values can stand only once. Like-named read-outs stand apart in the source and are kept apart here.
Columns and labels:
[1] = gadolinium complexes; cited from earlier work
[2] = literature; cited from earlier work
[3] = Stability constant of the Ca complex by direct titration of 1:1 metal:ligand; pCa; format: physicochemical; conditions: for logβCaL (log KCaL): present work, 1:1 metal:H3bpatcn 5.10^−4 M, pH 2.5 to 8.5
Description: (§1) The stability constants of the complexes of H3bpatcn of Gd^III and of […] have been calculated by direct titration of a mixture of 1:1 metal:H3bpatcn (5.10^−4 M) in a pH range between 2.5 and 8.5.
(§2) The titration data may be represented by the following equations:
Ca^2++bpatcn^3−⇄[Ca(bpatcn)]^− log KCaL=8.18(7)

[4] = De-protonation constants (pKa) by potentiometric titration; format: physicochemical; conditions: 0.1 M KCl, 298 K
Description: Both following equivalents protonate the carboxylate moieties associated with the pyridines (pKa2=2.3(2), pKa3=3.71(3).
The protonation curve and the structural data match a simultaneous partial protonation of the three nitrogens of the macrocycle as observed for the ligand H3nota, followed by the protonation of the carboxylate moieties. The protonation of the third amine and of the nitrogens of the pyridines takes place at lower pH and the related pKa has not been determined.

[5] = Stability constant of the Gd complex by direct titration of 1:1 metal:ligand; pGd; format: physicochemical; conditions: for Log βGdL (log KGdL): present work, 1:1 metal:H3bpatcn 5.10^−4 M, pH 2.5 to 8.5
Description: as §1, §2
Gd^3++bpatcn^3−⇄[Gd(bpatcn)] log KGdL=15.8(2);

[6] = Absorption and luminescence (excitation, molar absorption, lifetime, quantal throughput); format: physicochemical; conditions: for molar absorption coefficient: band at ˜36500 cm^−1; for ΦD2O (quantal throughput): in D2O; for ΦH2O (quantal throughput): in H2O; for τD2O (luminescence lifetime): in deuterized water; for τH2O (luminescence lifetime): in water; for emission quantal throughput F: relative to [Tb(dpa)3]^3−, buffer solution Tris 0.1M, 15% experimental error
Description: The absorption spectra of bpatcn^3− and its complexes of Eu^III and Tb^III show an intense band at ˜36500 cm^−1 with a molar absorption coefficient of 9050 for Eu and of 9100 for Tb. These bands have been attributed to a combination of π-->π* and n-->π* centred transitions of the ligand.
FIGS. 3a and 3b show respectively the emission spectra of the solutions of the europium and terbium complexes at pH=7.4 (obtained after excitation at 273 nm) and the usual and typical transitions ^5D0-->^7FJ and ^5D4-->^7FJ (J=0-6) of the ions Eu^3+ and Tb^3+.
The emission quantal throughput of the complex of [Tb(bpatcn)(H2O)]
The long life time of the luminescence observed for the terbium complex in water (1.5 ms), excludes the presence of a de-energizing process including the energy return of the metal in its energized state towards the ligand.
Chem. Int. Ed. Engl., 1987, 26, 1266; G. Mathis, Clin. Chem., 1993, 39, 195

[7] = cited from earlier work; for Log βGdL (log KGdL): literature
[8] = cited from earlier work; for logβCaL: literature
[9] = pH 7.4, [M]total=1 μM, [bpatcn]total=10 μM
[10] = commercial contrast agent, comparison

For O=C([O-])c1cccc(CN2CCN(Cc3cccc(C(=O)[O-])n3)CCN(Cc3cccc(C(=O)[O-])n3)CC2)n1.[Gd+3] [[Gd(tpatcn)]], which “zero-field spin electronic relaxation” value [1] is on record?
Its value is “approx. 1500 ps”.

With C1CNCCNCCN1 [1,4,7-triazacyclononane] as the compound, how does the “pKa (highest, first listed)” value [2] read?
Its value is 10.42.

And the “pKa (second listed)” value [2]?
The value was 6.82.

For O=C(O)CN1CCN(Cc2cccc(C(=O)[O-])n2)CCN(Cc2cccc(C(=O)[O-])n2)CC1.[Ca+2] [[Ca(bpatcn)]^−], which “logβCaL (log KCaL)” value [3] is on record?
Its value is 8.18(7).

For O=C(O)CN1CCN(Cc2cccc(C(=O)O)n2)CCN(Cc2cccc(C(=O)O)n2)CC1 [H3bpatcn], which pKa4 ([4]; macrocycle nitrogen) is on record?
The pKa4 was 5.42(3).

And the pKa5 ([4]; macrocycle nitrogen)?
The pKa5 was 10.5(2).

What about the pKa2 ([4]; picolinate carboxylate) of the same compound?
The pKa2 was 2.3(2).

And the pKa3 ([4]; picolinate carboxylate)?
Its pKa3 is 3.7(3) and 3.71(3).

And the pKa1 ([4]; protonation of the carboxylate moiety)?
Its pKa1 is 2.2(2).

What about the “increase in stability of the gadolinium complex (relative to nota complex)” value ([5]; due to two pyridyl nitrogen donors) of the same compound?
The value was 2.1 log units.

What about the “pGd (−log [M]free)” value [5, 9] of the same compound?
The value was 13.6.

What about the “Log βGdL (log KGdL)” value [5] of the same compound?
The value was 15.8(2).

And the ε [6]?
The ε was 7850 M⁻¹ cm⁻¹.

What about the λexc [6] of the same compound?
The λexc was 272 nm.

What about the “pCa (−log [M]free)” value [3, 9] of the same compound?
Its value is 6.30.

And the “logβCaL (log KCaL)” value [3]?
The value was 8.18(7).

With O=C([O-])CN1CCN(Cc2cccc(C(=O)[O-])n2)CCN(Cc2cccc(C(=O)[O-])n2)CC1.[Gd+3] [[Gd(bpatcn)]] as the compound, how does the “Log βGdL (log KGdL)” value [5] read?
The value was 15.8(2).

Which “Log βGdL (log KGdL)” value [7] does the source give for O=C(O)CN(CC(=O)O)CC(=O)O [H3nta, nitrilotriethanoic acid] here?
The value was 11.4.

What about the “pKa (highest, first listed)” value [2] of the same compound?
The value was 9.75.

What about the “pKa (second listed)” value [2] of the same compound?
The value was 2.64.

What about the “pKa (third listed)” value [2] of the same compound?
Its value is 1.57.

For O=C(O)CN(CCN(CC(=O)O)CC(=O)O)CC(=O)O [H4edta], which “Log βGdL (log KGdL)” value [7] is on record?
Its value is 17.4.

What about the logβCaL [8] of the same compound?
The logβCaL was 10.5.

What about the “pKa (fourth listed)” value [2] of the same compound?
Its value is 2.60.

And the “pKa (highest, first listed)” value [2]?
Its value is 10.19.

And the “pKa (second listed)” value [2]?
The value was 6.13.

What about the “pKa (third listed)” value [2] of the same compound?
Its value is 2.69.

With O=C(O)CN(CCN(CC(=O)O)Cc1ccccn1)Cc1ccccn1 [N,N′-bis(2-pyridinylmethyl)ethylenediamine-N,N′-diacetate] as the compound, how does the “contribution of the 2-pyridylmethyl to stability of the Gd^III complex” value ([7]; estimated) read?
The value was 2.6 log units.

With O=C(O)CN1CCN(CC(=O)O)CCN(CC(=O)O)CC1 [H3nota, 1,4,7-triazacyclononane-N,N′,NN″-triacetic (H3nota) acid] as the compound, how does the “Log βGdL (log KGdL)” value [7] read?
Its value is 13.7.

What about the logβCaL [8] of the same compound?
The logβCaL was 8.92.

What about the “pKa (highest, first listed)” value [2] of the same compound?
Its value is 11.3(1).

What about the “pKa (second listed)” value [2] of the same compound?
The value was 5.6.

And the “pKa (third listed)” value [2]?
The value was 2.88(2).

With O=C(O)c1cccc(CN(Cc2cccc(C(=O)O)n2)Cc2cccc(C(=O)O)n2)n1 [H3tpaa, α, α′, α″ nitrilotri(6-methyl-2-pyridinecarboxylic) acid] as the compound, how does the “Log βGdL (log KGdL)” value [7] read?
Its value is 10.2(2).

And the logβCaL [8]?
The logβCaL was 8.5(2).

What about the “pKa (highest, first listed)” value [2] of the same compound?
Its value is 4.11(6).

What about the “pKa (second listed)” value [2] of the same compound?
Its value is 3.3(1).

What about the “pKa (third listed)” value [2] of the same compound?
Its value is 2.5(2).

Which results are given for CNC(=O)CN(CCN(CCN(CC(=O)[O-])CC(=O)NC)CC(=O)[O-])CC(=O)[O-].[Gd+3] [[Gd(dtpa-bma)(H2O)]^−]?
pGd [7, 10]: 15.8; Log βGdL (log KGdL) [7]: 1.85; pCa [8, 10]: 6.39

For O=C(O)CN1CCN(CC(=O)O)CCN(CC(=O)O)CCN(CC(=O)O)CC1 (Gd complex, metal not drawn) [dota, 1,4,7,10-tetraazacyclododecane-N,N′,N″,N′″-tetra-acetic (H4dota) acid], which “zero-field spin electronic relaxation” value [1] is on record?
Its value is 650 ps.

With O=C(O)CN(CCN(CC(=O)O)Cc1cccc(C(=O)O)n1)Cc1cccc(C(=O)O)n1 [H4bpdea, N,N′-bis[(6-carboxypyridin-2-yl)methyl]-ethylene diamine-N,N′-diacetic (H4bpeda) acid] as the compound, how does the “Log βGdL (log KGdL)” value [7] read?
The value was 15.1(3).

And the logβCaL [8]?
Its logβCaL is 9.4(1).

What about the “pKa (fourth listed)” value [2] of the same compound?
The value was 2.9(1).

And the “pKa (highest, first listed)” value [2]?
Its value is 8.5(1).

And the “pKa (second listed)” value [2]?
Its value is 5.2(2).

What about the “pKa (third listed)” value [2] of the same compound?
The value was 3.5(1).

Which results are given for O=C([O-])CN1CCN(Cc2cccc(C(=O)[O-])n2)CCN(Cc2cccc(C(=O)[O-])n2)CC1.[Eu+3] [Eu (bpatcn)]?
ε [6]: 9050 M⁻¹ cm⁻¹; λexc [6]: 273 nm; molar absorption coefficient [6]: 9050 M⁻¹ cm⁻¹; ΦD2O (quantal throughput) [6]: 0.12; ΦH2O (quantal throughput) [6]: 0.05; τD2O (luminescence lifetime) [6]: 1.67 (4) ms; τH2O (luminescence lifetime) [6]: 0.542 (4) ms; emission quantal throughput F [6]: 5%

With O=C([O-])CN1CCN(Cc2cccc(C(=O)[O-])n2)CCN(Cc2cccc(C(=O)[O-])n2)CC1.[Tb+3] [Tb (bpatcn)] as the compound, how does the ε [6] read?
The ε was 9100 M⁻¹ cm⁻¹.

And the λexc [6]?
The λexc was 273 nm.

What about the “quantal throughput value Φ” value ([6]; as stated in text before the table) of the same compound?
The value was 48%.

What about the molar absorption coefficient [6] of the same compound?
The molar absorption coefficient was 9100 M⁻¹ cm⁻¹.

What about the “ΦD2O (quantal throughput)” value [6] of the same compound?
The value was 0.48.

And the “ΦH2O (quantal throughput)” value [6]?
The value was 0.43.

What about the “τD2O (luminescence lifetime)” value [6] of the same compound?
Its value is 2.46 (7) ms.

What about the “τH2O (luminescence lifetime)” value [6] of the same compound?
The value was 1.5 ms and 1.49 (2) ms.

And the “emission quantal throughput F” value [6]?
The value was 43%.

— US20100247448A1, “NOVEL LANTHANIDE LIGANDS AND COMPLEXES, AND USE THEREOF AS CONTRAST AGENTS” (COMMISSARIAT A L'ENERGIE ATOMIQUE, priority 2006, published 2010)
